# Laboratory results from ChEMBL document CHEMBL3797052 (Eur J Med Chem, 2016).
# Tested on: not listed separately
# Test: Antiproliferative activity against human SF268 cells assessed as cell growth at 10^-6 M after 48 hrs by sulforhodamine B assay
# Type: functional
# Conditions: SF-268, 48 h, read-out: Activity
row,Compound,growth at 1 µM
1,CNC(=O)c1cc(Oc2ccc3nc(NC(=O)Nc4ccc(Cl)c(C(F)(F)F)c4)sc3c2)ccn1,78%

# Tested on: MDA-MB-231
# Test: Antiproliferative activity against human MDA-MB-231 cells assessed as cell growth at 10^-8 M after 48 hrs by sulforhodamine B assay
# Type: functional
# Conditions: MDA-MB-231, 48 h, read-out: Activity
row,Compound,growth at 0.01 µM
1,CNC(=O)c1cc(Oc2ccc3nc(NC(=O)Nc4ccc(Cl)c(C(F)(F)F)c4)sc3c2)ccn1,115%

# Tested on: SK-MEL-2
# Test: Antiproliferative activity against human SK-MEL-2 cells assessed as cell growth at 10^-8 M after 48 hrs by sulforhodamine B assay
# Type: functional
# Conditions: SK-MEL-2, 48 h, read-out: Activity
row,Compound,growth at 0.01 µM
1,CNC(=O)c1cc(Oc2ccc3nc(NC(=O)Nc4ccc(Cl)c(C(F)(F)F)c4)sc3c2)ccn1,103%

# Tested on: not listed separately
# Test: Antiproliferative activity against human NCI-ADR-RES cells assessed as cell growth at 10^-7 M after 48 hrs by sulforhodamine B assay
# Type: functional
# Conditions: read-out: Activity
row,Compound,growth at 0.1 µM
1,CNC(=O)c1cc(Oc2ccc3nc(NC(=O)Nc4ccc(Cl)c(C(F)(F)F)c4)sc3c2)ccn1,113%

# Tested on: not listed separately
# Test: Antiproliferative activity against human HCT15 cells assessed as growth inhibition after 48 hrs by sulforhodamine B assay
# Type: functional
# Conditions: HCT-15, 48 h
Compound,GI50,LC50
CNC(=O)c1cc(Oc2ccc3nc(NC(=O)Nc4ccc(Cl)c(C(F)(F)F)c4)sc3c2)ccn1,1950 nM,> 100000 nM

# Tested on: not listed separately
# Test: Antiproliferative activity against human UACC62 cells assessed as cell growth at 10^-4 M after 48 hrs by sulforhodamine B assay
# Type: functional
# Conditions: UACC-62, 48 h, read-out: Activity
row,Compound,growth at 100 µM
1,CNC(=O)c1cc(Oc2ccc3nc(NC(=O)Nc4ccc(Cl)c(C(F)(F)F)c4)sc3c2)ccn1,26%

# Tested on: not listed separately
# Test: Antiproliferative activity against human OVCAR5 cells assessed as cell growth at 10^-8 M after 48 hrs by sulforhodamine B assay
# Type: functional
# Conditions: OVCAR-5, 48 h, read-out: Activity
row,Compound,growth at 0.01 µM
1,CNC(=O)c1cc(Oc2ccc3nc(NC(=O)Nc4ccc(Cl)c(C(F)(F)F)c4)sc3c2)ccn1,90%

# Tested on: not listed separately
# Test: Antiproliferative activity against human HL-60(TB) cells assessed as cell growth at 10^-7 M after 48 hrs by sulforhodamine B assay
# Type: functional
# Conditions: HL-60, 48 h, read-out: Activity
row,Compound,growth at 0.1 µM
1,CNC(=O)c1cc(Oc2ccc3nc(NC(=O)Nc4ccc(Cl)c(C(F)(F)F)c4)sc3c2)ccn1,110%

# Tested on: HT-29
# Test: Antiproliferative activity against human HT-29 cells assessed as cell growth at 10^-7 M after 48 hrs by sulforhodamine B assay
# Type: functional
# Conditions: HT-29, 48 h, read-out: Activity
row,Compound,growth at 0.1 µM
1,CNC(=O)c1cc(Oc2ccc3nc(NC(=O)Nc4ccc(Cl)c(C(F)(F)F)c4)sc3c2)ccn1,103%

# Tested on: MDA-MB-231
# Test: Antiproliferative activity against human MDA-MB-231 cells assessed as cell growth at 10^-6 M after 48 hrs by sulforhodamine B assay
# Type: functional
# Conditions: MDA-MB-231, 48 h, read-out: Activity
row,Compound,growth at 1 µM
1,CNC(=O)c1cc(Oc2ccc3nc(NC(=O)Nc4ccc(Cl)c(C(F)(F)F)c4)sc3c2)ccn1,66%

# Tested on: Malme-3M
# Test: Antiproliferative activity against human MALME-3M cells assessed as cell growth at 10^-7 M after 48 hrs by sulforhodamine B assay
# Type: functional
# Conditions: read-out: Activity
row,Compound,growth at 0.1 µM
1,CNC(=O)c1cc(Oc2ccc3nc(NC(=O)Nc4ccc(Cl)c(C(F)(F)F)c4)sc3c2)ccn1,98%

# Tested on: not listed separately
# Test: Antiproliferative activity against human HOP62 cells assessed as cell growth at 10^-8 M after 48 hrs by sulforhodamine B assay
# Type: functional
# Conditions: HOP-62, 48 h, read-out: Activity
row,Compound,growth at 0.01 µM
1,CNC(=O)c1cc(Oc2ccc3nc(NC(=O)Nc4ccc(Cl)c(C(F)(F)F)c4)sc3c2)ccn1,92%

# Tested on: NCI-H322M
# Test: Antiproliferative activity against human NCI-H322M cells assessed as growth inhibition after 48 hrs by sulforhodamine B assay
# Type: functional
# Conditions: not given
Compound,GI50,LC50 (50% lethal concentration)
CNC(=O)c1cc(Oc2ccc3nc(NC(=O)Nc4ccc(Cl)c(C(F)(F)F)c4)sc3c2)ccn1,2620 nM,> 100000 nM

# Target: Voltage-gated inwardly rectifying potassium channel KCNH2 (Homo sapiens, UniProt Q12809)
# Sequence (Q12809 whole entry): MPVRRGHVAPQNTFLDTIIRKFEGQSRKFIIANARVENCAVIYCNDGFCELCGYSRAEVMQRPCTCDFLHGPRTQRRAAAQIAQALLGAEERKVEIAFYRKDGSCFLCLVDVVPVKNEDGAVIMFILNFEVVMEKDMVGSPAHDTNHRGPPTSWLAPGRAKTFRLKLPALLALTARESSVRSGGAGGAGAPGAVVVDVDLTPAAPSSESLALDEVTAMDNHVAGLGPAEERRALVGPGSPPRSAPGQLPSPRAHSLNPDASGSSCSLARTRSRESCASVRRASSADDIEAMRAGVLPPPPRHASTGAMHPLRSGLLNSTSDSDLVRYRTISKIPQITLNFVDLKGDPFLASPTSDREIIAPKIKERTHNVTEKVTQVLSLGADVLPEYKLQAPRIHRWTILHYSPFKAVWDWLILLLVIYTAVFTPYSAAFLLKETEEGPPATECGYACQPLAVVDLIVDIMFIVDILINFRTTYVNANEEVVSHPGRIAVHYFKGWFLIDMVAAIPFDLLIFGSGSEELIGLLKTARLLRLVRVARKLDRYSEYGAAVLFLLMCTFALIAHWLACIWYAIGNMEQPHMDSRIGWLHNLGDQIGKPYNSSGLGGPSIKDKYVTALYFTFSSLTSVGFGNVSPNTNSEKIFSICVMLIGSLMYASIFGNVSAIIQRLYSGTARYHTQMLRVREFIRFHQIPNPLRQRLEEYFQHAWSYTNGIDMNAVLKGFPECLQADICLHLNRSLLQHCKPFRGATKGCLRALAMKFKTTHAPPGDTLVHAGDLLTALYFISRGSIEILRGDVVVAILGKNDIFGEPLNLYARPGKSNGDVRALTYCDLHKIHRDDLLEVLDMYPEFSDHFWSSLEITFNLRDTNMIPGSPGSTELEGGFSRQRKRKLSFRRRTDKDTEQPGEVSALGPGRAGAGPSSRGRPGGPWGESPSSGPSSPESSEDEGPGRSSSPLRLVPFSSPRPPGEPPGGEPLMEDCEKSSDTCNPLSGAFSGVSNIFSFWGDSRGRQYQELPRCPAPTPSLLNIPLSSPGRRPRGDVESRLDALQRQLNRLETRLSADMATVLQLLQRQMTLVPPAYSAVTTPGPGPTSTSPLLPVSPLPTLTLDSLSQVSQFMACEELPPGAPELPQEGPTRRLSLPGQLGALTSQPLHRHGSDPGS
# Test: Inhibition of human ERG assessed as reduction in channel current by automated patch-clamp electrophysiology assay
# Conditions: not given
row,Compound,IC50
1,CNC(=O)c1cc(Oc2ccc3nc(NC(=O)Nc4ccc(Cl)c(C(F)(F)F)c4)sc3c2)ccn1,> 100000 nM

# Tested on: not listed separately
# Test: Antiproliferative activity against human RPMI8226 cells assessed as cell growth at 10^-4 M after 48 hrs by sulforhodamine B assay
# Type: functional
# Conditions: RPMI-8226, 48 h, read-out: Activity
row,Compound,growth at 100 µM
1,CNC(=O)c1cc(Oc2ccc3nc(NC(=O)Nc4ccc(Cl)c(C(F)(F)F)c4)sc3c2)ccn1,46%

# Tested on: A549
# Test: Antiproliferative activity against human A549/ATCC cells assessed as cell growth at 10^-6 M after 48 hrs by sulforhodamine B assay
# Type: functional
# Conditions: A549, 48 h, read-out: Activity
row,Compound,growth at 1 µM
1,CNC(=O)c1cc(Oc2ccc3nc(NC(=O)Nc4ccc(Cl)c(C(F)(F)F)c4)sc3c2)ccn1,90%

# Tested on: not listed separately
# Test: Antiproliferative activity against human RXF393 cells assessed as cell growth at 10^-7 M after 48 hrs by sulforhodamine B assay
# Type: functional
# Conditions: RXF 393, 48 h, read-out: Activity
row,Compound,growth at 0.1 µM
1,CNC(=O)c1cc(Oc2ccc3nc(NC(=O)Nc4ccc(Cl)c(C(F)(F)F)c4)sc3c2)ccn1,90%

# Tested on: MCF7
# Test: Antiproliferative activity against human MCF7 cells assessed as cell growth at 10^-8 M after 48 hrs by sulforhodamine B assay
# Type: functional
# Conditions: MCF7, 48 h, read-out: Activity
row,Compound,growth at 0.01 µM
1,CNC(=O)c1cc(Oc2ccc3nc(NC(=O)Nc4ccc(Cl)c(C(F)(F)F)c4)sc3c2)ccn1,92%

# Tested on: not listed separately
# Test: Antiproliferative activity against human BT549 cells assessed as cell growth at 10^-4 M after 48 hrs by sulforhodamine B assay
# Type: functional
# Conditions: BT-549, 48 h, read-out: Activity
row,Compound,growth at 100 µM
1,CNC(=O)c1cc(Oc2ccc3nc(NC(=O)Nc4ccc(Cl)c(C(F)(F)F)c4)sc3c2)ccn1,-6%

# Tested on: HT-29
# Test: Antiproliferative activity against human HT-29 cells assessed as cell growth at 10^-8 M after 48 hrs by sulforhodamine B assay
# Type: functional
# Conditions: HT-29, 48 h, read-out: Activity
row,Compound,growth at 0.01 µM
1,CNC(=O)c1cc(Oc2ccc3nc(NC(=O)Nc4ccc(Cl)c(C(F)(F)F)c4)sc3c2)ccn1,99%

# Tested on: NCI-H322M
# Test: Antiproliferative activity against human NCI-H322M cells assessed as cell growth at 10^-4 M after 48 hrs by sulforhodamine B assay
# Type: functional
# Conditions: read-out: Activity
row,Compound,growth at 100 µM
1,CNC(=O)c1cc(Oc2ccc3nc(NC(=O)Nc4ccc(Cl)c(C(F)(F)F)c4)sc3c2)ccn1,27%

# Tested on: not listed separately
# Test: Antiproliferative activity against human OVCAR3 cells assessed as cell growth at 10^-4 M after 48 hrs by sulforhodamine B assay
# Type: functional
# Conditions: OVCAR-3, 48 h, read-out: Activity
row,Compound,growth at 100 µM
1,CNC(=O)c1cc(Oc2ccc3nc(NC(=O)Nc4ccc(Cl)c(C(F)(F)F)c4)sc3c2)ccn1,-14%

# Target: Serine/threonine-protein kinase B-raf (Homo sapiens, UniProt P15056, V600E)
# Sequence (P15056 2-766 V600E limits assumed): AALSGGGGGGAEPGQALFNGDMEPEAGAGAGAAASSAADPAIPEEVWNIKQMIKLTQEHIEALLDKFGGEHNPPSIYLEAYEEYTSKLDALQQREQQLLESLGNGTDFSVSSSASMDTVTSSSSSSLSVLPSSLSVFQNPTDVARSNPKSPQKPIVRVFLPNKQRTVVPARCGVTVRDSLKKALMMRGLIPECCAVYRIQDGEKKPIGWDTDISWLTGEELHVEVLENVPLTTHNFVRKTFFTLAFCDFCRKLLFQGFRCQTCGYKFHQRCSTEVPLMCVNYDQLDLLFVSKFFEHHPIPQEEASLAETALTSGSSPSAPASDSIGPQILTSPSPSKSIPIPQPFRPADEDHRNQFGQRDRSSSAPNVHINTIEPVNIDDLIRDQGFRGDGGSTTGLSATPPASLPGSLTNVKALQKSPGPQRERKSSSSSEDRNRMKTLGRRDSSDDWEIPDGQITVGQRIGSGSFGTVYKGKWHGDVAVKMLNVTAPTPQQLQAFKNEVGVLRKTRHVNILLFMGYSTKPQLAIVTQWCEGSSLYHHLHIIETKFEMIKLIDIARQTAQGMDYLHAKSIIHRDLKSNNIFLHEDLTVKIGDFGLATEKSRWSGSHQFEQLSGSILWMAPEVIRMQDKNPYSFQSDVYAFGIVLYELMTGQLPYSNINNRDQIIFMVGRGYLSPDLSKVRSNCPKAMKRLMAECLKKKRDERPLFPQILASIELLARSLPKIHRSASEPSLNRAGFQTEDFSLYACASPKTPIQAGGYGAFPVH
# Test: Inhibition of BRAF V600E mutant (unknown origin) measured after 40 mins by scintillation counting
# Conditions: not given
row,Compound,IC50
1,CNC(=O)c1cc(Oc2ccc3nc(NC(=O)Nc4ccc(Cl)c(C(F)(F)F)c4)sc3c2)ccn1,131 nM

# Tested on: not listed separately
# Test: Antiproliferative activity against human RXF393 cells assessed as cell growth at 10^-6 M after 48 hrs by sulforhodamine B assay
# Type: functional
# Conditions: RXF 393, 48 h, read-out: Activity
row,Compound,growth at 1 µM
1,CNC(=O)c1cc(Oc2ccc3nc(NC(=O)Nc4ccc(Cl)c(C(F)(F)F)c4)sc3c2)ccn1,88%

# Tested on: not listed separately
# Test: Antiproliferative activity against human UACC62 cells assessed as cell growth at 10^-7 M after 48 hrs by sulforhodamine B assay
# Type: functional
# Conditions: UACC-62, 48 h, read-out: Activity
row,Compound,growth at 0.1 µM
1,CNC(=O)c1cc(Oc2ccc3nc(NC(=O)Nc4ccc(Cl)c(C(F)(F)F)c4)sc3c2)ccn1,91%

# Tested on: U-251
# Test: Antiproliferative activity against human U251 cells assessed as cell growth at 10^-8 M after 48 hrs by sulforhodamine B assay
# Type: functional
# Conditions: U-251, 48 h, read-out: Activity
row,Compound,growth at 0.01 µM
1,CNC(=O)c1cc(Oc2ccc3nc(NC(=O)Nc4ccc(Cl)c(C(F)(F)F)c4)sc3c2)ccn1,102%

# Tested on: ACHN
# Test: Antiproliferative activity against human ACHN cells assessed as cell growth at 10^-4 M after 48 hrs by sulforhodamine B assay
# Type: functional
# Conditions: read-out: Activity
row,Compound,growth at 100 µM
1,CNC(=O)c1cc(Oc2ccc3nc(NC(=O)Nc4ccc(Cl)c(C(F)(F)F)c4)sc3c2)ccn1,-62%

# Tested on: not listed separately
# Test: Antiproliferative activity against human HOP62 cells assessed as cell growth at 10^-4 M after 48 hrs by sulforhodamine B assay
# Type: functional
# Conditions: HOP-62, 48 h, read-out: Activity
row,Compound,growth at 100 µM
1,CNC(=O)c1cc(Oc2ccc3nc(NC(=O)Nc4ccc(Cl)c(C(F)(F)F)c4)sc3c2)ccn1,-34%

# Tested on: not listed separately
# Test: Antiproliferative activity against human HL-60(TB) cells assessed as cell growth at 10^-4 M after 48 hrs by sulforhodamine B assay
# Type: functional
# Conditions: HL-60, 48 h, read-out: Activity
row,Compound,growth at 100 µM
1,CNC(=O)c1cc(Oc2ccc3nc(NC(=O)Nc4ccc(Cl)c(C(F)(F)F)c4)sc3c2)ccn1,59%

# Tested on: NCI-H522
# Test: Antiproliferative activity against human NCI-H522 cells assessed as cell growth at 10^-6 M after 48 hrs by sulforhodamine B assay
# Type: functional
# Conditions: NCI-H522, 48 h, read-out: Activity
row,Compound,growth at 1 µM
1,CNC(=O)c1cc(Oc2ccc3nc(NC(=O)Nc4ccc(Cl)c(C(F)(F)F)c4)sc3c2)ccn1,80%

# Tested on: not listed separately
# Test: Antiproliferative activity against human SW620 cells assessed as cell growth at […] M after 48 hrs by sulforhodamine B assay
# Type: functional
# Conditions: SW-620, 48 h, read-out: Activity
row,Compound,growth at 0.01 µM
1,CNC(=O)c1cc(Oc2ccc3nc(NC(=O)Nc4ccc(Cl)c(C(F)(F)F)c4)sc3c2)ccn1,100%

# Tested on: not listed separately
# Test: Antiproliferative activity against human HCT116 cells assessed as cell growth at 10^-4 M after 48 hrs by sulforhodamine B assay
# Type: functional
# Conditions: HCT-116, 48 h, read-out: Activity
row,Compound,growth at 100 µM
1,CNC(=O)c1cc(Oc2ccc3nc(NC(=O)Nc4ccc(Cl)c(C(F)(F)F)c4)sc3c2)ccn1,-19%

# Tested on: MDA-MB-468
# Test: Antiproliferative activity against human MDA-MB-468 cells assessed as cell growth at 10^-7 M after 48 hrs by sulforhodamine B assay
# Type: functional
# Conditions: MDA-MB-468, 48 h, read-out: Activity
row,Compound,growth at 0.1 µM
1,CNC(=O)c1cc(Oc2ccc3nc(NC(=O)Nc4ccc(Cl)c(C(F)(F)F)c4)sc3c2)ccn1,85%

# Tested on: not listed separately
# Test: Antiproliferative activity against human TK10 cells assessed as cell growth at 10^-7 M after 48 hrs by sulforhodamine B assay
# Type: functional
# Conditions: TK-10, 48 h, read-out: Activity
row,Compound,growth at 0.1 µM
1,CNC(=O)c1cc(Oc2ccc3nc(NC(=O)Nc4ccc(Cl)c(C(F)(F)F)c4)sc3c2)ccn1,105%

# Tested on: not listed separately
# Test: Antiproliferative activity against human SW620 cells assessed as growth inhibition after 48 hrs by sulforhodamine B assay
# Type: functional
# Conditions: SW-620, 48 h
Compound,GI50,TGI
CNC(=O)c1cc(Oc2ccc3nc(NC(=O)Nc4ccc(Cl)c(C(F)(F)F)c4)sc3c2)ccn1,2990 nM,> 100000 nM

# Same assay, conditions: SW-620, 48 h, read-out: LC50 (the source's name)
row,Compound,CC50
1,CNC(=O)c1cc(Oc2ccc3nc(NC(=O)Nc4ccc(Cl)c(C(F)(F)F)c4)sc3c2)ccn1,> 100000 nM

# Tested on: NCI-H23
# Test: Antiproliferative activity against human NCI-H23 cells assessed as cell growth at 10^-7 M after 48 hrs by sulforhodamine B assay
# Type: functional
# Conditions: NCI-H23, 48 h, read-out: Activity
row,Compound,growth at 0.1 µM
1,CNC(=O)c1cc(Oc2ccc3nc(NC(=O)Nc4ccc(Cl)c(C(F)(F)F)c4)sc3c2)ccn1,97%
